Test: xn = mol fraction of the nth substance listed
Conditions: 101 kPa, Liquid; for speed of sound: Sing-around technique in a fixed-path interferometer

Cc1cccc(C)c1 [1,3-dimethylbenzene] + COC(C)(C)C
Conditions	mass density, 295.65 K [kg/m3]	mass density, 298.15 K [kg/m3]	mass density, 300.65 K [kg/m3]	mass density, 303.15 K [kg/m3]	speed of sound, 298.15 K [m/s]	speed of sound, 300.65 K [m/s]	speed of sound, 303.15 K [m/s]	speed of sound, 305.65 K [m/s]
x2 = 0	–	859.89	857.742	855.593	1320.9	1310.6	1300.3	1290
x2 = 0.047	–	854.604	852.439	850.273	1308.8	1298.5	1288.1	1277.8
x2 = 0.115	–	846.749	844.562	842.425	1291	1280.5	1270	1259.7
x2 = 0.212	–	835.447	833.221	830.994	1264.3	1253.8	1243.3	1232.9
x2 = 0.304	–	824.615	822.354	820.086	1239.4	1228.8	1218.2	1207.7
x2 = 0.399	–	813.059	810.758	808.453	1213.1	1202.3	1191.6	1180.9
x2 = 0.5	802.93	800.588	798.24	795.888	1184.7	1173.9	1163.1	1152.3
x2 = 0.601	790.285	787.899	785.504	783.103	1156	1144.9	1133.8	1122.8
x2 = 0.651	783.85	781.433	779.011	776.58	1140.4	1129.3	1118.3	1107.3
x2 = 0.794	765.033	762.537	760.033	757.521	1098.1	1086.9	1075.7	1064.7
x2 = 0.898	751.19	748.629	746.061	743.481	1066.9	1055.5	1044	1032.7
x2 = 0.954	743.594	740.997	738.393	735.774	1050.9	1039.4	1027.8	1016.3

— the NIST ThermoML archive (doi:10.1016/j.fluid.2008.03.004)
